One block for each compound: values may come before it.
Experiments:
[1] = Pharmacokinetic test in rats; format: in vivo, SD rats; details: rat, intragastric administration 3 mg/kg
Method: 1.1 Experimental animals: male SD rats, about 220 g, 6-8 weeks old, 6 rats/compound. Purchased from Chengdu Ddossy Experimental Animals Co., Ltd.
1.2 Experimental design: on the day of the experiment, 6 SD rats were randomly grouped according to their body weights. The animals were fasted with water available for 12 to 14 h one day before the administration and were fed 4 h after the administration.
Vehicle for intravenous administration: 5% DMA+5% Solutol+90% Saline; vehicle for intragastric administration: 0.5% MC; control compound INS1007, namely compound 2 in patent WO 2015110826A1, was prepared with reference to the method of the patent.
Before and after the administration, 0.1 ml of blood was taken from the orbit of the animals under isoflurane anesthesia and placed in an EDTAK2 centrifuge tube. The blood was centrifuged at 5000 rpm and 4° C. for 10 min to collect the plasma. Blood sampling time points for the intravenous administration group: 0, 5 min, 15 min, 30 min, 1 h, 2 h, 4 h, 6 h, 8 h, and 24 h; and blood sampling time points for the intragastric administration group: 0, 5 min, 15 min, 30 min, 1 h, 2 h, 4 h, 6 h, 8 h, and 24 h. Before analysis and detection, all samples were stored at −80° C.

[2] = Hygroscopicity by dynamic vapor sorption (DVS); format: physicochemical; details: 25° C./80% RH
Method: The hygroscopicity of the crystal forms B and C was evaluated by a dynamic vapor sorption (DVS) instrument. The test collected the percentage change in the mass of the samples when the humidity changed (60% RH-95% RH-0% RH-95% RH or 0% RH-95% RH-0% RH) at a constant temperature of 25° C., wherein for the crystal form C, the test started at ambient humidity (about 60% RH), and for the crystal form B, the test started at 0% relative humidity (0% RH). The test results are shown in FIGS. 12 and 13, respectively.

[3] = Variable-temperature / heating XRPD test; format: physicochemical
Method: (initial temperature). […] In order to study the TGA weight loss of the crystal form B, a variable-temperature XRPD test was performed. […] (some diffraction peaks shifted at 120° C., and it is speculated that the shift may be caused by lattice expansion at high temperature). Therefore, it is speculated that the free base crystal form B is an anhydrous crystal form.
(peak temperatures). The sample was heated to 120° C. and cooled to room temperature, and then an XRPD test was performed. […] Based on the fact of crystal transformation of the sample upon heating in combination with the stepwise weight loss of the TGA, it is speculated that the crystal form C is a monohydrate.

[4] = Solid stability without protection (XRPD, UPLC); format: physicochemical
Method: For the compounds used in this experiment, the crystal form B was obtained from Example 3, and the crystal form C was obtained from Example 5
The crystal forms B and C were placed at 25° C./60% RH and 40° C./75% RH without any protection, and then the physical and chemical stabilities thereof were tested by XRPD and UPLC, respectively.

[5] = Stability, accelerated experiment; format: physicochemical; details: 40° C.±2° C., 75% RH±5% RH
Method: (§1) The compounds used in this experiment were obtained from Example 4. Examination conditions: 40° C.±2° C., 75% RH±5% RH. Packaging: the inner packaging material is a double-layer medicinal low-density polyethylene bag, and the outer packaging material is a polyester/aluminum/polyethylene medicinal composite bag. In particular, the analysis method of purity is as follows: [table]

[6] = Stability, long-term experiment 1; format: physicochemical; details: 25° C.±2° C., 60% RH±5% RH
Method: as §1, with “25°” for “40°”, “60%” for “75%”

[7] = Stability, long-term experiment 2; format: physicochemical; details: 30° C.±2° C., 65% RH±5% RH
Method: as §1, with “30°” for “40°”, “65%” for “75%”

[8] = Stability, long-term experiment 3; format: physicochemical; details: 2° C.-8° C.
Method: as §1, with “2° C.-8° C.” for “40° C.±2° C., 75% RH±5% RH.”

- F [1]: >100%
SMILES: Cn1c(=O)oc2ccc(-c3ccc(C[C@@H](C#N)NC(=O)[C@@H]4CNCCCO4)c(F)c3)cc21 [Compound I, (S)—N—((S)-1-cyano-2-(2-fluoro-4-(3-methyl-2-oxo-2,3-dihydrobenzo[d]oxazol-5-yl)phenyl)ethyl)-1,4-oxazepane-2-carboxamide]

- Moisture sorption [2]: 0.19%
- Crystal form change in variable-temperature XRPD ([3]; purged with nitrogen for 20 minutes, heated to 120° C., or cooled to 30° C.): did not change
- Crystal form change ([4]; 25° C./60% RH, 1 month): No
- Purity ([4]; 25° C./60% RH, 1 month): 99.76
- Crystal form change ([4]; 25° C./60% RH, 1 week): No
- Purity ([4]; 25° C./60% RH, 1 week): 99.74
- Purity ([4]; 25° C./60% RH, 3 weeks): 99.74
- Crystal form change ([4]; 40° C./75% RH, 1 month): No
- Purity ([4]; 40° C./75% RH, 1 month): 99.63
- Crystal form change ([4]; 40° C./75% RH, 1 week): No
- Purity ([4]; 40° C./75% RH, 1 week): 99.65
- Purity ([4]; 40° C./75% RH, 3 weeks): 99.57
- Purity ([4]; initial value): 99.86
- Content ([5]; month 0): 100.5%
- Crystal form ([5]; month 0): form B
- Moisture ([5]; month 0): 0.2%
- Purity ([5]; month 0): 99.93%
- Content ([5]; month 1): 100.4%
- Crystal form ([5]; month 1): form B
- Moisture ([5]; month 1): 0.3%
- Purity ([5]; month 1): 99.87%
- Content ([5]; month 2): 101.1%
- Crystal form ([5]; month 2): form B
- Moisture ([5]; month 2): 0.2%
- Purity ([5]; month 2): 99.88%
- Content ([5]; month 3): 100.1%
- Crystal form ([5]; month 3): form B
- Moisture ([5]; month 3): 0.2%
- Purity ([5]; month 3): 99.87%
- Content ([5]; month 6): 101.3%
- Crystal form ([5]; month 6): form B
- Moisture ([5]; month 6): 0.2%
- Purity ([5]; month 6): 99.88%
- Content ([6]; month 0): 100.5%
- Crystal form ([6]; month 0): form B
- Moisture ([6]; month 0): 0.2%
- Purity ([6]; month 0): 99.93%
- Content ([6]; month 3): 100.6%
- Crystal form ([6]; month 3): form B
- Moisture ([6]; month 3): 0.3%
- Purity ([6]; month 3): 99.87%
- Content ([6]; month 6): 100.7%
- Crystal form ([6]; month 6): form B
- Moisture ([6]; month 6): 0.2%
- Purity ([6]; month 6): 99.90%
- Content ([6]; month 9): 101.6%
- Crystal form ([6]; month 9): form B
- Moisture ([6]; month 9): 0.1%
- Purity ([6]; month 9): 99.89%
- Content ([6]; month 12): 99.5%
- Crystal form ([6]; month 12): form B
- Moisture ([6]; month 12): 0.2%
- Purity ([6]; month 12): 99.88%
- Content ([7]; month 0): 100.5%
- Crystal form ([7]; month 0): form B
- Moisture ([7]; month 0): 0.2%
- Purity ([7]; month 0): 99.93%
- Content ([7]; month 3): 100.6%
- Crystal form ([7]; month 3): form B
- Moisture ([7]; month 3): 0.3%
- Purity ([7]; month 3): 99.87%
- Content ([7]; month 6): 101.6%
- Crystal form ([7]; month 6): form B
- Moisture ([7]; month 6): 0.2%
- Purity ([7]; month 6): 99.90%
- Content ([7]; month 9): 100.7%
- Crystal form ([7]; month 9): form B
- Moisture ([7]; month 9): 0.1%
- Purity ([7]; month 9): 99.90%
- Content ([7]; month 12): 99.2%
- Crystal form ([7]; month 12): form B
- Moisture ([7]; month 12): 0.2%
- Purity ([7]; month 12): 99.89%
- Content ([8]; month 0): 100.5%
- Crystal form ([8]; month 0): form B
- Moisture ([8]; month 0): 0.2%
- Purity ([8]; month 0): 99.93%
- Content ([8]; month 3): 100.5%
- Crystal form ([8]; month 3): form B
- Moisture ([8]; month 3): 0.3%
- Purity ([8]; month 3): 99.87%
- Content ([8]; month 6): 100.0%
- Crystal form ([8]; month 6): form B
- Moisture ([8]; month 6): 0.3%
- Purity ([8]; month 6): 99.89%
- Content ([8]; month 9): 101.6%
- Crystal form ([8]; month 9): form B
- Moisture ([8]; month 9): 0.2%
- Purity ([8]; month 9): 99.89%
- Content ([8]; month 12): 101.0%
- Crystal form ([8]; month 12): form B
- Moisture ([8]; month 12): 0.2%
- Purity ([8]; month 12): 99.89%
SMILES: Cn1c(=O)oc2ccc(-c3ccc(C[C@@H](C#N)NC(=O)[C@@H]4CNCCCO4)c(F)c3)cc21 [Crystal form B]

- Moisture sorption [2]: 0.97%
- Crystal form change upon heating (XRPD) ([3]; heated to 120° C. and cooled to room temperature): transformed into the crystal form B
- Crystal form change ([4]; 25° C./60% RH, 1 week): No
- Purity ([4]; 25° C./60% RH, 1 week): 99.70
- Crystal form change ([4]; 40° C./75% RH, 1 week): No
- Purity ([4]; 40° C./75% RH, 1 week): 99.71
- Purity ([4]; initial value): 99.87
SMILES: Cn1c(=O)oc2ccc(-c3ccc(C[C@@H](C#N)NC(=O)[C@@H]4CNCCCO4)c(F)c3)cc21 [Crystal form C]

- F [1]: 88.1%
SMILES: Cn1c(=O)oc2ccc(-c3ccc(C[C@@H](C#N)NC(=O)[C@@H]4CNCCCO4)cc3)cc21 [INS1007, reference compound]

Source: US20250163036A1, “DIPEPTIDYL PEPTIDASE 1 INHIBITOR POLYMORPH, PREPARATION METHOD AND USE THEREFOR” (HAISCO PHARMACEUTICALS PTE. LTD., priority 2022, published 2025)
